According to article PMC4648528, “Interplay between Structure and Charge as a Key to Allosteric Modulation of Human 20S Proteasome by the Basic Fragment of HIV-1 Tat Protein” (PLoS ONE, 2015):
Read-outs that look alike come from different tables or passages of the source. Square brackets hold non-standard residues; d marks the D form. Ends that are not written are not given here. Peptide text beside a SMILES is read from it. Oic = O=C(O)[C@@H]1C[C@@H]2CCCC[C@@H]2N1; dOic = O=C(O)[C@H]1C[C@H]2CCCC[C@H]2N1; Tic = O=C(O)[C@@H]1Cc2ccccc2CN1; dTic = O=C(O)[C@H]1Cc2ccccc2CN1

Experiments:
human 20S proteasome [1] = system: T1, human 20S proteasome; experiment: Peptide degradation test with 20S proteasome (RP-HPLC); type: in vitro ADME
T1 construct: isolated from human erythrocytes (Enzo Life Sciences); purchased Enzo Life Sciences; host or cells: human erythrocytes
Experimental: Susceptibility of the designed modulators to degradation by the 20S proteasome was examined by reversed-phase high-performance liquid chromatography (S10 Fig). The compounds were dissolved in water or DMSO to 10 mM concentration and then diluted with 25 mM Tris buffer containing 0.25 mM EDTA (pH 8.0) to the final concentration of 1 mM. 2.5 μg of human 20S proteasome (Enzo Life Sciences) was added to the mixture, which then, after adjustment of its final volume to 100 μl, was incubated at 37°C for 3 h. The reaction was stopped by adding 5 μl of 10% aqueous trifluoroacetic acid. Next, 40 μl of the mixture, along with the control not containing the 20S, were injected onto C8 Kromasil column (4,6 x 250 mm, 100 Å, 5 μm). […]
incubation with the proteasome under standard conditions used in our tests. For comparison we also included the degradation profile of Tat1_A4-5,8-9, which was not able to inhibit the proteasome […]
(1 picture or pasted object on this page, not shown here)

human 20S proteasome [2] = molecular target: T1, human 20S proteasome; experiment: Microscale thermophoresis with fluorescently labeled human 20S proteasome; type: binding; conditions: for Kd: MST; for EC50: MST Hill fit, concentrations listed in nM, read-out: EC50, fitted value (Hill method)
Excerpt: Microscale thermophoresis detects changes in the mobility of protein molecules in temperature gradients generated by IR laser radiation. The thermophoretic effect is very sensitive to induced by a ligand binding alterations in the charge, size and/or the hydration shell of a studied protein [39]. Quantification of these changes is based on either intrinsic fluorophores such as tryptophan or covalently bound dyes. Titration of the selected peptides/peptidomimetics to a constant concentration of the fluorescently labeled human 20S proteasome allowed us to determine ligand dissociation constants (Kd), and systematically compare their binding affinity.
The human 20S proteasome was labeled using monolith NT^TM Protein Labeling Kit RED-NHS (NanoTemper Technologies), according to the protocol provided by the supplier. During the measurements concentration of the labeled protein was kept constant at 3 nM. […] The binding reactions were carried out in 50 mM Tris/HCl buffer containing 0.5 mM EDTA, pH 8.0 with an addition of sodium dodecyl sulfate at the final concentration of 0.005%. Measurements were performed in standard treated capillaries on a Monolith NT.115 system (NanoTemper Technologies). Capillaries were illuminated at 25°C with 80% LED power for 5 s. […] Fluorescence intensities were measured at 6–8 s and 34–36 s, and fluorescence intensity ratios of hot/cold were used as the assay readout. Kd values were determined using the internal evaluation software.

human 20S proteasome [3] = molecular target: T1, human 20S proteasome; experiment: ChT-L peptidase activity of SDS-activated human 20S proteasome (SucLLVY-MCA); type: biochemical
Experimental: Influence of the designed peptides on catalytic properties of the 20S proteasome was tested using the proteasome at a final concentration of 1.5 nM, isolated from human erythrocytes (Enzo Life Sciences) and activated with 0.01% sodium dodecyl sulfate. Succinyl-Leu-Leu-Val-Tyr-4-methylcoumarin-7-amide (SucLLVY-MCA) was employed as a model fluorogenic substrate to determine the activity of ChT-L peptidase. All assays were performed in the 96-well plate format using a reaction volume of 100 uL. Tests were carried out in 50 mM Tris/HCl, pH 8.0 containing 0.5 mM ethylenediamine tetraacetic acid. Stock solutions of the substrates and the tested peptides were prepared by dissolution of the lyophilized compounds in dimethyl sulfoxide (DMSO). The content of DMSO never exceeded 3% of the final reaction volume. Compounds were tested in the concentration range of 0.05–10 μM. The substrate was added at 100 μM final concentration (1% of the volume). The release of an aminomethyl coumarin (AMC) group was followed by measuring fluorescence emission at 460 nm in 2 min. intervals for up to 60 min. at 37°C (Fluoroskan Ascent). The peptidolytic activity was calculated as nanomoles of the released AMC product per mg of CP per second. The half maximal inhibitory concentration expressed in μM concentration was calculated with SigmaPlot 12.3 where exponential equation estimates based on fitting of two or three logistic parameters were employed.

20S proteasome = conditions: cited from earlier work
Excerpt: Intriguingly, we first identified the importance of structural dynamics of this peptide, when we compared the FTIR spectra collected in liquid and films. […] The best studied and shortest 11-residue PR11 may contain a structural turn and is hypothesized to bind at the outer edge of the proteasomal α ring. Another example is octa-arginine, inhibiting the proteasome peptidase activity in vitro with high- ...

[4] = ChT-L activity, average of repetitions, read-out: Calculated IC50, Average
[5] = ChT-L peptidase, 1.5 nM 20S from human erythrocytes activated with 0.01% SDS, 100 μM SucLLVY-MCA, 50 mM Tris/HCl pH 8.0, 0.5 mM EDTA, 37°C, mean (±SD), read-out: IC50
[6] = average of three repetitions, read-out: Kd, Average
[7] = ChT-L activity, Repetition 1, read-out: Calculated IC50

| Compound | IC50 (human 20S proteasome [3]; [4]) [nM] | IC50 (human 20S proteasome [3]; [5]) [nM] | also measured |
| --- | --- | --- | --- |
| N=C(N)NCCC[C@H](NC(=O)CN)C(=O)N[C@@H](CCCCN)C(=O)N[C@@H](CCCCN)C(=O)N[C@@H](CCCNC(=N)N)C(=O)N[C@@H](CCCNC(=N)N)C(=O)N[C@@H](CCC(N)=O)C(=O)N[C@@H](CCCNC(=N)N)C(=O)N[C@@H](CCCNC(=N)N)C(=O)N[C@@H](CCCNC(=N)N)C(=O)N1CCC[C@H]1C(=O)N[C@@H](CO)C(=O)O [Tat1] | – | – | Degradation by the 20S proteasome (human 20S proteasome [1]; 1 mM peptide, 2.5 μg human 20S proteasome in 100 μl, 25 mM Tris, 0.25 mM EDTA pH 8.0, 37°C, 3 h, RP-HPLC C8, UV 223 nm, against control without 20S): No significant degradation |
| N=C(N)NCCC[C@H](NC(=O)CN)C(=O)N[C@@H](CCCCN)C(=O)N1Cc2ccccc2C[C@@H]1C(=O)N1[C@H](C(=O)N[C@@H](CCCNC(=N)N)C(=O)N[C@@H](CCC(N)=O)C(=O)N2Cc3ccccc3C[C@H]2C(=O)N2[C@@H](C(=O)N[C@@H](CCCNC(=N)N)C(=O)N3CCC[C@H]3C(=O)N[C@@H](CO)C(=O)O)C[C@H]3CCCC[C@H]32)C[C@@H]2CCCC[C@@H]21 [Tat1_4-5TO,8-9TOD] (H-GRK[dTic][Oic]RQ[Tic][dOic]RPS-OH) | 245 | 240 | Kd (human 20S proteasome [2]; read-out: Dissociation constants Kd calculated on the basis of the thermophoresis curves, 3 nM labeled 20S, 50 mM Tris/HCl, 0.5 mM EDTA pH 8.0, 0.005% SDS, 25°C, mean (±SD)): 8.38 µM |
| N=C(N)NCCC[C@H](NC(=O)CN)C(=O)N[C@@H](CCCCN)C(=O)N1Cc2ccccc2C[C@@H]1C(=O)N1[C@H](C(=O)N[C@@H](CCCNC(=N)N)C(=O)N[C@@H](CCC(N)=O)C(=O)N[C@@H](CCCNC(=N)N)C(=O)N[C@@H](CCCNC(=N)N)C(=O)N[C@@H](CCCNC(=N)N)C(=O)N2CCC[C@H]2C(=O)N[C@@H](CO)C(=O)O)C[C@@H]2CCCC[C@@H]21 [Tat1_4-5TO] (HELM PEPTIDE1{G.R.K.[O=C([C@H]1Cc2ccccc2CN1[*:1])[*:2]].[O=C([C@@H]1C[C@@H]2CCCC[C@@H]2N1[*:1])[*:2]].R.Q.R.R.R.P.S}$$$$V2.0) | 239 | 240 | EC50 (human 20S proteasome [2]; Repetition 1): 8730 ± 0.0212 nM; EC50 (human 20S proteasome [2]; Repetition 2): 9260 ± 0.0182 nM; EC50 (human 20S proteasome [2]; Repetition 3): 8730 ± 0.0265 nM; Kd (human 20S proteasome [2]; [6]): 8.91 µM |
| N=C(N)NCCC[C@H](NC(=O)CN)C(=O)N[C@@H](CCCCN)C(=O)N[C@@H](CCCCN)C(=O)N[C@@H](CCCNC(=N)N)C(=O)N[C@@H](CCCNC(=N)N)C(=O)N[C@@H](CCC(N)=O)C(=O)N1Cc2ccccc2C[C@H]1C(=O)N1[C@@H](C(=O)N[C@@H](CCCNC(=N)N)C(=O)N2CCC[C@H]2C(=O)N[C@@H](CO)C(=O)O)C[C@H]2CCCC[C@H]21 [Tat1_8-9TOD] | 122 | 120 | EC50 (human 20S proteasome [2]; Repetition 1): 8320 ± 0.0423 nM; EC50 (human 20S proteasome [2]; Repetition 2): 7550 ± 0.0388 nM; EC50 (human 20S proteasome [2]; Repetition 3): 8560 ± 0.0538 nM; Kd (human 20S proteasome [2]; [6]): 8.14 µM; IC50 lower than for counterpart with d-Tic,l-Oic unit (Tat1_8-9TO) (human 20S proteasome [3]; ChT-L activity): about 30% |
| N=C(N)NCCC[C@H](NC(=O)CN)C(=O)N[C@@H](CCCCN)C(=O)N[C@@H](CCCCN)C(=O)N[C@@H](CCCNC(=N)N)C(=O)N[C@@H](CCCNC(=N)N)C(=O)N[C@@H](CCC(N)=O)C(=O)N1Cc2ccccc2C[C@@H]1C(=O)N1[C@H](C(=O)N[C@@H](CCCNC(=N)N)C(=O)N2CCC[C@H]2C(=O)N[C@@H](CO)C(=O)O)C[C@@H]2CCCC[C@@H]21 [Tat1_8-9TO] | 170 | 170 | EC50 (human 20S proteasome [2]; Repetition 1): 8880 ± 0.0559 nM; EC50 (human 20S proteasome [2]; Repetition 2): 10800 ± 0.0559 nM; EC50 (human 20S proteasome [2]; Repetition 3): 11500 ± 0.0559 nM; Kd (human 20S proteasome [2]; [6]): 10.4 µM |
| GAAARRQRRRPS [Tat1_A2-4] | – | 450 | Increase of IC50 relative to Tat1 (human 20S proteasome [3]; ChT-L activity of SDS activated 20S proteasome): about two times higher |
| GRAAAAQRRRPS [Tat1_A3-6] | 4240 | 4240 | – |
| GRAAARQRRRPS [Tat1_A3-5] | 1570 | 1570 | – |
| GRAARRQRRRPS [Tat1_A3-4] | 245 | 240 | – |
| GRKAAAQRRRPS [Tat1_A4-6] | 1720 | 1720 | EC50 (human 20S proteasome [2]; Repetition 1): 12800 ± 0.155 nM; EC50 (human 20S proteasome [2]; Repetition 2): 10600 ± 0.0436 nM; EC50 (human 20S proteasome [2]; Repetition 3): 12000 ± 0.084 nM; Kd (human 20S proteasome [2]; Repetition2, read-out: Kd): 10.6 µM; Kd (human 20S proteasome [2]; [6]): 12.1 µM |
| GRKAARQAARPS [Tat1_A4-5,8–9] | – | 4660 | Degradation by the 20S proteasome (human 20S proteasome [1]; pH 8): partially degraded by the proteasome; IC50 (human 20S proteasome [3]; [7]): 4890 nM; IC50 (human 20S proteasome [3]; ChT-L activity, Repetition 2, read-out: Calculated IC50): 3470 nM; IC50 (human 20S proteasome [3]; ChT-L activity, Repetition 3, read-out: Calculated IC50): 4430 nM |
| GRKAARQRRRPS [Tat1_A4-5] | 264 | 260 | – |
| GRKKAAARRRPS [Tat1_A5-7] | 315 | 310 | – |
| GRKKAAQRRRPS [Tat1_A5-6] | 321 | 320 | – |
| GRKKARAAARPS [Tat1_A5,7–9] | 1530 | 1530 | – |
| GRKKRAAARRPS [Tat1_A6-8] | 342 | 340 | – |
| GRKKRRAAAAPS [Tat1_A7-10] | 2790 | 2790 | – |
| GRKKRRAAARPS [Tat1_A7-9] | 281 | 280 | – |
| GRKKRRQAAAPS [Tat1_A8-10] | 2520 | 2520 | EC50 (human 20S proteasome [2]; Repetition 1): 13800 ± 0.227 nM; EC50 (human 20S proteasome [2]; Repetition 2): 12800 ± 0.251 nM; EC50 (human 20S proteasome [2]; Repetition 3): 13800 ± 0.218 nM; Kd (human 20S proteasome [2]; [6]): 13.5 µM; IC50 (human 20S proteasome [3]; [7]): 1990 nM |
| octa-arginine | – | – | IC50, proteasome peptidase activity in vitro (20S proteasome): high-nanomolar |
